According to PMC8449129, “Single tracer-based protocol for broad-spectrum kinase profiling in live cells with NanoBRET” (STAR Protocols, 2021):

Experiments:
Assay in all cases: cell-based
Set-up in all cases: NanoBRET live-cell target engagement; % occupancy from displacement of tracer K10 on NanoLuc-kinase fusions, mean n=3
Details in all cases: HEK293, read-out: % inhibition
JAK3 = JAK3 (Homo sapiens, UniProt P52333)
Summary of the method: (§1)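 Live-cell NanoBRET target engagement: cells expressing kinase–NanoLuc fusion with tracer treated with compound 2 h at 37 °C, 5% CO2. BRET read from donor (450 nm) and acceptor (610/630 nm) emission with 20 μM extracellular NanoLuc inhibitor; % occupancy calculated relative to tracer+DMSO and zero-BRET controls.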

STK38L = STK38L (Homo sapiens, UniProt Q9Y2H1)
Summary of the method: as §1

STK10 = STK10 (Homo sapiens, UniProt O94804)
Summary of the method: as §1

NEK1 = NEK1 (Homo sapiens, UniProt Q96PY6)
Summary of the method: as §1

HIPK3 = HIPK3 (Homo sapiens, UniProt Q9H422)
Summary of the method: as §1

RPS6KA3 = RPS6KA3 (Homo sapiens, UniProt P51812)
Summary of the method: as §1

NEK11 = NEK11 (Homo sapiens, UniProt Q8NG66)
Summary of the method: as §1

LRRK2 = LRRK2 (Homo sapiens, UniProt Q5S007)
Summary of the method: as §1

MARK4 = MARK4 (Homo sapiens, UniProt Q96L34)
Summary of the method: as §1

RIPK2 = RIPK2 (Homo sapiens, UniProt O43353)
Summary of the method: as §1

CDK7 = CDK7 (Homo sapiens, UniProt P50613)
Summary of the method: as §1

FLT3 = FLT3 (Homo sapiens, UniProt P36888)
Summary of the method: as §1

NEK3 = NEK3 (Homo sapiens, UniProt P51956)
Summary of the method: as §1

MAST3 = MAST3 (Homo sapiens, UniProt O60307)
Summary of the method: as §1

RPS6KA6 = RPS6KA6 (Homo sapiens, UniProt Q9UK32)
Summary of the method: as §1

RIPK1 = RIPK1 (Homo sapiens, UniProt Q13546)
Summary of the method: as §1

PLK3 = PLK3 (Homo sapiens, UniProt Q9H4B4)
Summary of the method: as §1

RIOK2 = RIOK2 (Homo sapiens, UniProt Q9BVS4)
Summary of the method: as §1

RPS6KA3, sequence (P51812 whole entry): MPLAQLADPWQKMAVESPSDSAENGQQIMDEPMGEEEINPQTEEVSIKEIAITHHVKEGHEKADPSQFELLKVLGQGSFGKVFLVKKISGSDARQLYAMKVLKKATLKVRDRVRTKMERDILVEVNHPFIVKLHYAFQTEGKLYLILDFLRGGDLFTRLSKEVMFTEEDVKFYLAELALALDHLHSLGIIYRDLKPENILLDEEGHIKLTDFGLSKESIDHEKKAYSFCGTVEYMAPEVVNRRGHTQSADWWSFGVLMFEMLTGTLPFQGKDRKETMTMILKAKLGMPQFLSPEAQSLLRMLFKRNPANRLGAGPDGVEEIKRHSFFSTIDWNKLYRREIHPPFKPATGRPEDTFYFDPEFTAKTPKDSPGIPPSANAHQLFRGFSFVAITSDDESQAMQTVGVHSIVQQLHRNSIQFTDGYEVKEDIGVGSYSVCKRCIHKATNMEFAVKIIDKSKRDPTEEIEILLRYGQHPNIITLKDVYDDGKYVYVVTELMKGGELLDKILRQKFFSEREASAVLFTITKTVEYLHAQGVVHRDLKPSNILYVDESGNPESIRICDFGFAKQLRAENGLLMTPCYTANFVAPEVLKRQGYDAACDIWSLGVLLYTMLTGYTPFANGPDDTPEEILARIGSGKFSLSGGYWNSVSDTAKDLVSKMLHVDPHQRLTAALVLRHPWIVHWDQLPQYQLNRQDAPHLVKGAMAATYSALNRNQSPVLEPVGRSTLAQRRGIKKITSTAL
STK38L, sequence (Q9Y2H1 whole entry): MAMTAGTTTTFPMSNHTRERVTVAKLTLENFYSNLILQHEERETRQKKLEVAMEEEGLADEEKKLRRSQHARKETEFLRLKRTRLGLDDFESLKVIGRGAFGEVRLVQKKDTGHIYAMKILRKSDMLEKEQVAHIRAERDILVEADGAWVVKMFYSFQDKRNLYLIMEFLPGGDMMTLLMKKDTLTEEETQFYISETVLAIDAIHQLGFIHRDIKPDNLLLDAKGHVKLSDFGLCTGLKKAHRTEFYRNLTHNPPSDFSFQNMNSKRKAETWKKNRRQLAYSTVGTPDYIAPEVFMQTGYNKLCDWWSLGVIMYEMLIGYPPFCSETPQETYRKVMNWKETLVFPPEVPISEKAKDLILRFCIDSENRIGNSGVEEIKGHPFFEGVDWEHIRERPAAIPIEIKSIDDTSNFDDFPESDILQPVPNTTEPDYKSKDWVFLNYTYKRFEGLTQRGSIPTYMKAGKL
NEK3, sequence (P51956 whole entry): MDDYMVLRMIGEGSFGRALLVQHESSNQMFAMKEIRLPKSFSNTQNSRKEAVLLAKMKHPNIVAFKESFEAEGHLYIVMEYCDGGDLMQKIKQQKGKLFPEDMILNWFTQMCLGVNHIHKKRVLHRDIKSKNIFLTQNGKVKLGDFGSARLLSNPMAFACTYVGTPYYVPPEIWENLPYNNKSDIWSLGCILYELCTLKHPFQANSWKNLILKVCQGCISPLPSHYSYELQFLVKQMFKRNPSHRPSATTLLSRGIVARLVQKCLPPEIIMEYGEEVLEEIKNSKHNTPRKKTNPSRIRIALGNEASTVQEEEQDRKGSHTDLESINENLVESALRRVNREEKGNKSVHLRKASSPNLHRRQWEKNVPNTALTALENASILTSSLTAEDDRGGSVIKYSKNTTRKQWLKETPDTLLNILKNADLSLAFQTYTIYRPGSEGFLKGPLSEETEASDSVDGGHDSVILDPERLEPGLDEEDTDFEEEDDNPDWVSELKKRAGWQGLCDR
JAK3, sequence (P52333 whole entry, the tested form may be a part): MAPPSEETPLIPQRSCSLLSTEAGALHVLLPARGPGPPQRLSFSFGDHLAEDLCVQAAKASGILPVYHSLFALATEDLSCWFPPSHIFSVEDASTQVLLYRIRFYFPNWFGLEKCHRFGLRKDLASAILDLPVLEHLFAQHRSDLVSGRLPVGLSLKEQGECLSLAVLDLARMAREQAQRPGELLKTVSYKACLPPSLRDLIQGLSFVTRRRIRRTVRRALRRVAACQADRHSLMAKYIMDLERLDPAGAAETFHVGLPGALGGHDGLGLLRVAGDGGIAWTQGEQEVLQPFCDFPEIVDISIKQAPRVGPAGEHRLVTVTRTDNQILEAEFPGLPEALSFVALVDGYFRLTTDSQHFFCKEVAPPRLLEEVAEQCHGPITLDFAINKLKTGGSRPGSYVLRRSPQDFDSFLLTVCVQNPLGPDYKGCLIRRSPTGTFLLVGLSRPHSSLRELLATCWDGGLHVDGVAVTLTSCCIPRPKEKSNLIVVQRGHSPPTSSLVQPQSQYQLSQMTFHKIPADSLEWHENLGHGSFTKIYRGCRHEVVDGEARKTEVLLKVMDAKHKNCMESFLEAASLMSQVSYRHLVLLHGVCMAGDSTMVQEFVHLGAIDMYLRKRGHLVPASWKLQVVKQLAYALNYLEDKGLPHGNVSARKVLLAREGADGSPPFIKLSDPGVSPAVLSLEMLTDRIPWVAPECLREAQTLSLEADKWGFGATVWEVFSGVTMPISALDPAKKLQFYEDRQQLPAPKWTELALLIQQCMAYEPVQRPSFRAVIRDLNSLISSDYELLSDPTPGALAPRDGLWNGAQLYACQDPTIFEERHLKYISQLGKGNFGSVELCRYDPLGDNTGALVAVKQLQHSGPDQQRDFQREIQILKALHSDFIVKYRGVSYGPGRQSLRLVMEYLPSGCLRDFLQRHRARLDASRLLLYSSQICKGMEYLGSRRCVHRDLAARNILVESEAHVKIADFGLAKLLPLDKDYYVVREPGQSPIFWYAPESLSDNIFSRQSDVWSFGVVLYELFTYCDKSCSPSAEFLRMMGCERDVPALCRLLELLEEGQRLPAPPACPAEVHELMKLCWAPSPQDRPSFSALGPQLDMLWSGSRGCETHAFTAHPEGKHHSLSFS
RIPK1, sequence (Q13546 whole entry): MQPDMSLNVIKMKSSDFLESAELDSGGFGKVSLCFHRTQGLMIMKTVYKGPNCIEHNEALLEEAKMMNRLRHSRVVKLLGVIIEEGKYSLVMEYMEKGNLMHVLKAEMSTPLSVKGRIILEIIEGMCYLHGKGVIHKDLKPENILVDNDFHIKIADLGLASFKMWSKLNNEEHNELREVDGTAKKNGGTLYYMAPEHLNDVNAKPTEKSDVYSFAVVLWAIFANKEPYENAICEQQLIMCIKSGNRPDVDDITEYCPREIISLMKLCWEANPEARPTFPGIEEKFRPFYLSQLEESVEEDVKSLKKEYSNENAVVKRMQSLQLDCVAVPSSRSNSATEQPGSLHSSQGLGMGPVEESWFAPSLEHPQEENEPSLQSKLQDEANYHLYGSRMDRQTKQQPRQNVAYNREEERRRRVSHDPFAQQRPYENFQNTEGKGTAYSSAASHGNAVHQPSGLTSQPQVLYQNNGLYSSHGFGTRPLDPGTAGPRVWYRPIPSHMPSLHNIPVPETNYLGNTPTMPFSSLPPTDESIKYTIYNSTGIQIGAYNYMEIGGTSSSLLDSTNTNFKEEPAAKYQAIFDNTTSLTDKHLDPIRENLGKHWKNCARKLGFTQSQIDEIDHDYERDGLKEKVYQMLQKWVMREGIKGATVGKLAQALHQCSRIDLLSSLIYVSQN
RPS6KA6, sequence (Q9UK32 whole entry): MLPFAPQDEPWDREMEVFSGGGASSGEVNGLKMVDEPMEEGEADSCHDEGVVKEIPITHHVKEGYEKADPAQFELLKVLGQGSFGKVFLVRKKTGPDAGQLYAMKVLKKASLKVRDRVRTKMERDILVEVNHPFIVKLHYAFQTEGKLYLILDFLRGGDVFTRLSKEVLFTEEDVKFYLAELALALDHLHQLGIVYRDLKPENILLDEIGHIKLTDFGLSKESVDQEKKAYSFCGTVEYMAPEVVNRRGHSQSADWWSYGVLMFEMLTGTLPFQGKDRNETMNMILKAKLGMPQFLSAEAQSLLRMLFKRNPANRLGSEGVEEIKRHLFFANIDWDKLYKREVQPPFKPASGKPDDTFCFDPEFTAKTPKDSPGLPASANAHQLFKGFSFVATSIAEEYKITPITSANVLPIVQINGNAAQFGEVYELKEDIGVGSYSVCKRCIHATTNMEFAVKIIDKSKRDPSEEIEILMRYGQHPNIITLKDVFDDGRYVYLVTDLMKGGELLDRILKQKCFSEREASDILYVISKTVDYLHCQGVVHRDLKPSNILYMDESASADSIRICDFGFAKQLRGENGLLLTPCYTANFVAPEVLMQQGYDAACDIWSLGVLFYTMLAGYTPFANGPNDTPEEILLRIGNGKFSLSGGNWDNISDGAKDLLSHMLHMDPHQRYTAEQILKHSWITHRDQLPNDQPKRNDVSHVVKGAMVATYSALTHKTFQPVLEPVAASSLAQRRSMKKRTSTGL
NEK11, sequence (Q8NG66 whole entry): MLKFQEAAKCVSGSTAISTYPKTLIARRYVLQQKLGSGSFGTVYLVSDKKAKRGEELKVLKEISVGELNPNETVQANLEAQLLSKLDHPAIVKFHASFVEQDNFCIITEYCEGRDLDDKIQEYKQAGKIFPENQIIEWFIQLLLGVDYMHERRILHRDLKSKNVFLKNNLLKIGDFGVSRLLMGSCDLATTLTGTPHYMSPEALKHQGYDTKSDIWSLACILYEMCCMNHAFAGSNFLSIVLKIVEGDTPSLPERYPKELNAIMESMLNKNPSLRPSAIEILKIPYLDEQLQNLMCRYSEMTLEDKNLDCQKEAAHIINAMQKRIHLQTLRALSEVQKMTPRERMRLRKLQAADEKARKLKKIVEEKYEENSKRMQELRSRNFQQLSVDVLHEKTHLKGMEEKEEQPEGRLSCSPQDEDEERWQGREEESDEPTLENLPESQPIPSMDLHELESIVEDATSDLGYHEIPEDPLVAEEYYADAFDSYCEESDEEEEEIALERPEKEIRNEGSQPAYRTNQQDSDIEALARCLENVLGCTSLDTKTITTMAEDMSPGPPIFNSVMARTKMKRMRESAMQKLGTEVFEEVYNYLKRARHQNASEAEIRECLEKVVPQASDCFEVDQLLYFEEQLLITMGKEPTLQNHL

inhibition at 1 µM (JAK3): 2%
inhibition at 1 µM (STK38L): 5%
inhibition at 1 µM (STK10): 35%
inhibition at 1 µM (NEK1): 3%
inhibition at 1 µM (HIPK3): -4%
inhibition at 1 µM (RPS6KA3): -7%
inhibition at 1 µM (NEK11): 7%
inhibition at 1 µM (LRRK2): -9%
inhibition at 1 µM (MARK4): -15%
inhibition at 1 µM (RIPK2): 43%
inhibition at 1 µM (CDK7): 32%
inhibition at 1 µM (FLT3): -4%
inhibition at 1 µM (NEK3): -2%
inhibition at 1 µM (MAST3): -1%
inhibition at 1 µM (RPS6KA6): -10%
inhibition at 1 µM (RIPK1): 23%
inhibition at 1 µM (PLK3): 4%
inhibition at 1 µM (RIOK2): 9%
SMILES: C[C@@H](Oc1cc(-c2cnn(C3CCNCC3)c2)cnc1N)c1c(Cl)ccc(F)c1Cl [crizotinib]
